# Test results published in patent publication US20110251213A1, “Cosmetic Use of 1-Aroyl-N-(2-oxo-3-piperidinyl)-2-Piperazine Carbomamides and Related Compounds” (Avon Products, Inc., priority 2008, published 2011).
# Like-named read-outs stand apart in the source and are kept apart here.
# How the values were obtained:
# procollagen 1 = settings: human dermal fibroblasts, 5 μg/ml, 48 hours
# Protocol: Human dermal fibroblasts (Cascade Biologics) were cultured in 96-well tissue culture plates in growth medium (DMEM, 5% FBS, 1% L-Glut, and 1% antibiotics) and incubated for 24 hours at 37° C. […] Procollagen 1 levels were assayed using an ELISA kit from Takara (Procollagen Type-1 C-Peptide EIA Kit, Takara Bio Inc.) as per manufacturer's instructions.
# Desmoglein 1 = settings: keratinocytes
# Protocol: Normal human keratinocytes were cultured in 96 well tissue culture treated plates in Epilife medium with growth supplements (Cascade Biologics Inc.). Cells were treated with test material or a dimethylsulfoxide vehicle control diluted in growth medium for 24 hours in a humidified 37° C. incubator with 10% CO2. After incubation, growth medium from each plate was removed and 100 μl of lysis buffer was added to each of the wells and placed in the humidified 37° C. incubator with 10% CO2 for 30 minutes. At the end of the incubation period, the cells were collected in freezer plates and placed in a −80° C. freezer, until analysis. Changes in mRNA for Desmoglein 3 (DSG3) after treatment were analysed using Panomics Quantigene multiplex assay that employs branched DNA technology.
# Dermatopontin = settings: fibroblasts, 24 hours, p<0.05
# Protocol: Normal human dermal fibroblasts were cultured in 96 well tissue culture treated plates, containing appropriate culture medium. Cells were treated with 1-aroyl-N-(2-oxo-3-piperidinyl)-2-piperazine carboxamide test material, diluted in growth medium, for 24 hours in a humidified 37° C. incubator with 10% CO2. After incubation, growth medium from each plate was removed and 100 μl of lysis buffer was added to the wells and placed in 37° C. incubator with10% CO2 for 30 minutes. At the end of incubation, the cells were collected in freezer plates and placed in −80° C. freezer, until analysis. Changes in mRNA for Dermatopontin after treatment were analysed using Panomics Quantigene multiplex assay that employs a branched DNA technology.
substance,measurement,setting,value
1-aroyl-N-(2-oxo-3-piperidinyl)-2-piperazine carboxamide,increase in collagen synthesis compared to control,procollagen 1,75.4%
same,increase in Desmoglein 1 expression,"Desmoglein 1; 0.00005% of the test material, 24 hours",did not show a statistically significant increase
same,increase in Desmoglein 1 expression,"Desmoglein 1; concentration of 0.0005%, after 24 hours, average of three samples, p<0.05",95%
same,stimulation in mRNA levels for Dermatopontin,Dermatopontin; 0.00005%,43%
same,stimulation in mRNA levels for Dermatopontin,Dermatopontin; 0.0005%,62%
